Laboratory results as given in patent US10174068B2, “Methods of functionalization and reagents used in such methods using an aza-isatoic anhydride or a derivative thereof, biological molecules thus treated and kits” (BIOMERIEUX, priority 2012, dated 2019).

Tests used:
ORN with 27 bases = assay: Functionalization of a 27-mer ORN, degree of functionalization (Df) by HPLC after nuclease P1/alkaline phosphatase hydrolysis
Description: A comparison of the reactivity of the aza-isatoic anhydride derivative 14 relative to the reference isatoic derivative, Biot-peg4-SS-IAMe as described in WO-A-2012/076794, with respect to a 27-base model ORN (seq: 5′-AAC-CGC-AGU-GAC-ACC-CUC-AUC-AUU-ACA-3′, Eurogentec, Liege Science Park, Belgium) is carried out. For this, a fixed amount of ORN is reacted with an isatoic anhydride derivative conjugated with a molecule of interest, at 65° C. and at room temperature. The reaction is monitored by HPLC at 260 nm as was described previously in patent application WO-A-2012/076794 in example 3. This analysis makes it possible to detect the disappearance of the peak corresponding to the initial ORN and the appearance of peaks corresponding to the acylated ORN. These products have a greater retention time, and an absorption spectrum corresponding both to that of the ORN, and to that of the functionalizing reagent.
For precise evaluation of the degree of functionalization (Df), the ORN population (labelled and unlabelled) is separated from the surplus marker by precipitation with acetone/lithium perchlorate. Then the ORNs thus obtained are submitted to hydrolysis with nuclease P1 (Aldrich, Saint Louis, USA) and with alkaline phosphatase (Aldrich, Saint Louis, USA) in order to hydrolyse the phosphate diester bonds of the ORN.
LC-MS analysis of this mixture then allows several populations to be characterized and identified: • unlabelled ribonucleosides; • labelled mono-nucleoside adducts, which differ very clearly by a longer retention time, and by a UV spectrum characteristic of the nucleic acids and of the functionalizing reagent; • dinucleotides acylated at 2′ which, because of the anthranilate group substituted with the group of interest at 2′, cannot be cleaved by the nuclease P1; • per-acylated 2′OH trinucleotides or tetranucleotides, which may form theoretically but which are statistically very little represented (as this would then require two or three consecutive acylations of 2′OH), are not investigated.
The degree of functionalization of the ORN (Df) is evaluated by measuring: • the area corresponding to the terminal mononucleoside adducts (functionalized at 2′ and at 3′) and the area corresponding to the acylated dinucleotides (functionalized internally on the 2′OH) • compared to the area of the peaks corresponding to the four ribonucleosides.
In a standard experiment, the equivalent of 8 nmol of an ORN with 27 bases (5′-AAC-CGC-AGU-GAC-ACC-CUC-AUC-AUU-ACA-3′, Eurogentec, Liege Science Park, Belgium) in solution in water is first dried in a centrifugal evaporator (RCT 60, Jouan, St Herblain, France) in a 2-mL plastic Eppendorf tube. The dry residue obtained is first dissolved in 40 μL of water, then 20 μl of a buffered solution is added (in the example, a 1M triethylammonium acetate buffer solution, pH 7, Aldrich, St Louis, USA ref: 09748-100 ml). Finally, 20 μl of a solution of an isatoic anhydride derivative at 120 mM in DMSO is incorporated in the preceding solution (either the reference molecule Biot-peg4-SS-IAMe as described in FR 1060102 or the aza-isatoic derivative Biot-peg4-SS-azaIAMe (14) in this example). The mixture is incubated for 60 minutes at room temperature or at 65° C. in a stove on a rack pre-equilibrated in temperature. To remove the salts and the surplus marker, the mixture is then purified by triple precipitation in 1.2 mL of an acetone/LiClO4 180 mM 75/25 mixture. […]

[1] = tested on: mixture of HIV RNA transcripts and genomic calf DNA; assay: Selective extraction of HIV RNA transcripts from a mixture with genomic DNA (functionalization/capture/cleavage/elution, Qubit quantification); conditions: tag at 1.5 mM; for Final DNA/RNA ratio: after elution step 4
Description: For this, two biological models of nucleic acids were selected, HIV transcripts for RNA and genomic calf DNA. In order to compare the efficacy of the aza-isatoic derivative 14, these tests were also carried out on the reference compound Biot-peg4-SS-IAMe at 65° C. and at room temperature.
The nucleic acids used in this example are as follows: • HIV transcripts WT 1500 bases, at 1.94 μg/μL. • gDNA calf thymus, SIGMA (Saint Louis, USA), ref. D4764-5UN, at 1.92 μg/μL.
The following reagents are put in three 0.2-ml plastic tubes (Table 2 below):
In each case, the final concentrations of TEAAc and of functionalizing reagent are 250 mM and 1.5 mM respectively.
The three tubes are incubated for 1 hour at room temperature or at 65° C. on a heated rack.
Purification of the nucleic acids for each test was carried out in 5 different tubes of equivalent volume, in order to meet the optimum conditions for this step (i.e. 1 mg of magnetic silica per 2 μg of nucleic acids). Thus, each test is distributed in five 1.5-mL Eppendorf tubes i.e. 5 times 2.1 μL (2 μg of AN). 900 μL of lysis buffer (Easy Mag buffer, ref. 280134, bioMerieux, Marcy l'Etoile, France) and 50 μL of magnetic silica particles (EasyMAG silica, ref. 280133, bioMerieux, Marcy l'Etoile, France) are added to each tube. The latter are immediately stirred by the vortex effect after adding the silica, and then incubated for 10 minutes at room temperature. After magnetization on a DYNAL magnet, the supernatants are removed by aspiration with a pipette. For the next washing steps, the tubes are always stirred by the vortex effect and magnetized, followed by removal of the supernatant. A first washing is carried out with 500 μL of washing buffer 1 (Easy Mag buffer, ref. 280130, bioMerieux, Marcy l'Etoile, France). Two washings are then carried out with 900 μL and then 500 μL of washing buffer 2 (Easy Mag buffer, ref. 280131, bioMerieux, Marcy l'Etoile, France). Finally, a last washing step is carried out with 500 μL of elution buffer 3 (Easy Mag buffer, ref. 280132, bioMerieux, Marcy l'Etoile, France) at room temperature. […] The latter are analysed with the Qubit® Fluorometer instrument, ref. Q32857, Invitrogen (Carlsbad, Calif., United States of America), and using the kits Quant-iT RNA Assay Kit 5-100 ng (ref. Q32855, Invitrogen, Carlsbad, Calif., United States of America), and Quant-iT dsDNA HS Assay Kit 0.2-100 ng (ref. Q32854, Invitrogen, Carlsbad, Calif., United States of America). These analysis kits allow an RNA/DNA ratio to be determined in a mixture.
To perform this capture on magnetic particles, it is necessary to store each of the tests divided into 5 tubes in the preceding purification step. […] This supernatant is analysed as before with the Qubit® Fluorometer. […]

ODN with 27 bases = assay: Functionalization of a 27-mer ODN (chemo-selectivity RNA versus DNA); conditions: room temperature, 1 hour, reagent 30 mM, DMSO/TEAAc 250 mM pH 7 25/75
Description: 8 nmol of ODN with 27 bases, Seq: 5′-AAC-CGC-AGT-GAC-ACC-CTC-ATC-ATT-ACA-3′ (Eurogentec, Liege Science Park, Belgium) or 8 nmol of an ORN with 27 bases, Seq: 5′-AAC-CGC-AGU-GAC-ACC-CUC-AUC-AUU-ACA-3′ (Eurogentec, Liege Science Park, Belgium) is reacted with the aza-isatoic anhydride derivative (14) at 30 mM in a mixture DMSO/buffer TEAAc (250 mM pH 7) 25/75, for 1 hour at room temperature. After precipitation with acetone and hydrolysis with nuclease P1 and alkaline phosphatase, the hydrolysed fragments are analysed by LC-MS, as described in example 3. An example of chromatograms for monitoring the reaction of the ODN or of the ORN with compound 14 is shown in FIG. 6, where traces A, B and C correspond respectively to the initial ORN, the ORN functionalized with compound 14 and precipitated, and the ORN functionalized with 14, precipitated and hydrolysed. Traces D, E and F represent the same results obtained with the ODN.

[2] = 65° C., 60 minutes, TEAAc pH 7, reagent 120 mM in DMSO diluted in the mixture
[3] = room temperature, 1 hour, TEAAc pH 7, reagent 30 mM

| melting point [°C] | SMILES | uncorrected degree of functionalization (Df) of the ORN (ORN with 27 bases; [2]) [%] | uncorrected degree of functionalization (Df) of the ORN (ORN with 27 bases; [3]) [%] | S* (intermediate selectivity index) ([1]; functionalization at 65° C.) | Final DNA/RNA ratio ([1]; functionalization at 65° C.) | factor of increase of reactivity with respect to an oligoribonucleotide relative to the reference compound (ORN with 27 bases; 65° C.) | S* (intermediate selectivity index) ([1]; functionalization at Rt) | Final DNA/RNA ratio ([1]; functionalization at Rt) | uncorrected degree of functionalization of the ODN (ODN with 27 bases) [%] |
| --- | --- | --- | --- | --- | --- | --- | --- | --- | --- |
| – | O=C(CCCCC1SCC2NC(=O)NC21)NCCOCCOCCOCCC(=O)NCCSSCCC(=O)Nc1cccc2[nH]c(=O)oc(=O)c12 (centres unmarked) [Biot-peg4-SS-IAMe, reference compound] | 7.5 | 1 | 6 | 14/86 | – | – | – | – |
| 125 | Cn1c(=O)oc(=O)c2cc(CCC(=O)NCCSSCCNC(=O)CCCCC3SCC4NC(=O)NC43)cnc21 (centres unmarked) [Compound 12, 5-[(3AS,6AR)-2-OXO-HEXAHYDRO-1H-THIENO[3,4-D]IMIDAZOLIDIN-4-YL]-N-(2-{[2-(3-{1-METHYL-2,4-DIOXO-1H,2H,4H-PYRIDO[2,3-D][1,3]OXAZIN-6-YL}PROPANAMIDO)ETHYL]DISULPHANYL}ETHYL)PENTANAMIDE] | – | – | – | – | – | – | – | – |
| – | Cn1c(=O)oc(=O)c2cc(CCC(=O)NCCSSCCNC(=O)CCOCCOCCOCCOCCNC(=O)CCCCC3SCC4NC(=O)NC43)cnc21 [Compound 14, 1-{5-[(3aS,6aR)-2-oxo-hexahydro-1H-thieno[3,4-d]imidazolidin-4-yl]pentanamido}-N-(2-{[2-(3-{1-methyl-2,4-dioxo-1H,2H,4H-pyrido[2,3-d][1,3]oxazin-6-yl}propanamido)ethyl]disulphanyl}ethyl)-3,6,9,12-tetraoxapentadecan-15-amide] | 13.5 | 7.8 | – | – | 1.8 | 30 | 4/96 | 0.5 |
